The text below walks through data of patent US7476754B2, “Biphenyl derived thiamides as calpain inhibitors” (Consejo Superior de Investigaciones Cientificas, priority 2004, dated 2009).

In the assay the target is T1, calpain I (Sus scrofa, UniProt P35750).
T1 construct: The calpain I from porcine erythrocytes; purchased CALBIOCHEM; host or cells: porcine erythrocytes (tissue-purified)
T1 sequence (P35750 1-714): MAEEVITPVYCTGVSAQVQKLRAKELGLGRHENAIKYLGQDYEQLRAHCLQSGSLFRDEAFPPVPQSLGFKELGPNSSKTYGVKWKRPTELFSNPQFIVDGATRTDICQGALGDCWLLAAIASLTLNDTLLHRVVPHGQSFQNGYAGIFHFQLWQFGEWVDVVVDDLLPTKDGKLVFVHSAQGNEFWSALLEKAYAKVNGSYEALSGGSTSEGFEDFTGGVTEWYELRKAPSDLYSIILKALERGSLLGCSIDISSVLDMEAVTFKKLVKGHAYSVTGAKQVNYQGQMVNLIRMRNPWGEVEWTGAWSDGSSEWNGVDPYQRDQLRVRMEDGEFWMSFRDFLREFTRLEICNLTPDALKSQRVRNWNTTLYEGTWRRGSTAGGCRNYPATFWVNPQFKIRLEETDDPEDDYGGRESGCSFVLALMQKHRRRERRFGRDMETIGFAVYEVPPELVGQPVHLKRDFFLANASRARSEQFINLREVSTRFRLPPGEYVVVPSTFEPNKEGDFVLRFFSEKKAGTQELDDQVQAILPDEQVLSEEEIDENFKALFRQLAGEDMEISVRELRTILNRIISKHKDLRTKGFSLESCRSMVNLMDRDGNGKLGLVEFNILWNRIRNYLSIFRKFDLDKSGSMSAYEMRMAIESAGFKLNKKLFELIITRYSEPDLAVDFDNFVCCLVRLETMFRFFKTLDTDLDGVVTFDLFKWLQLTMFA
T1 sequence (P04574 1-266 partner): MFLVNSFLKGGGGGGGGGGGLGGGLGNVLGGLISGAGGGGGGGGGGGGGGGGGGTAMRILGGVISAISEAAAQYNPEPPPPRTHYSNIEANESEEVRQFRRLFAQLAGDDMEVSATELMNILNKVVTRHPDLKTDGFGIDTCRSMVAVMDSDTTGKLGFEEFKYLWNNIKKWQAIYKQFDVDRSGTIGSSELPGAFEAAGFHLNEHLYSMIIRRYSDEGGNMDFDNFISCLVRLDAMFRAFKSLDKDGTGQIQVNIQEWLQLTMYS
Nature of the assay: Enzyme activity test: inhibition of calpain (EnzCheck protease assay kit, BODIPY FL casein, fluorescence). Conditions: calpain I from porcine erythrocytes; BODIPY FL casein substrate; Tris-HCl pH 7.8; triplicate. It is filed as biochemical. From the text: The calpain inhibition capacity has been quantified in terms of the value of IC50, which is defined as the concentration of inhibitor that reduces the catalytic activity of an enzyme by half. The lower the value of IC50, the more powerful the inhibitor. Inhibition results on calpain I (the most relevant from a physiological point of view) of some compounds of the present invention are shown in table 1 and in FIG. 1. Given that calpain II, also known as milli-calpain, needs a greater amount of calcium for activation, it might not possibly have such a relevant physiological role since such a concentration of calcium would cause cell death before the milli-calpain could become activated. For this reason, the inhibition tests have been performed for calpain I, though they can be extrapolated for calpain II.
The calpain inhibition capacity has been quantified in terms of the value of IC50, which is defined as the concentration of inhibitor that reduces the catalytic activity of an enzyme by half. The lower the value of IC50, the more powerful the inhibitor. Inhibition results on calpain I (the most relevant from a physiological point of view) of some compounds of the present invention are shown in table 1 and in FIG. 1.
In order to carry out the inhibition test on calpains, we used the EnzCheck® Protease Assay Kit E-338 from Molecular Probes. This kit contains casein marked with BODIPY FL®, freeze-dried from phosphate buffer. Also used as a digestion buffer was Tris-HCl at pH 7.8, containing 2 mM of sodium azide. The calpain I from porcine erythrocytes or calpain II from porcine kidney that were used are commercial products from CALBIOCHEM®. The enzyme stock solution contained 20 mM of imidazol-HCl buffer, pH 6.8, 1 mM EDTA, 1 mM EGTA, 5 mM β-mercaptoethanol, 30% in glycerol.
The synthetic inhibitors were dissolved in 250 μL of DMSO. The tests were conducted on 96-well microplates in a final volume of 200 μL. In order to carry out the test, aliquots of stock solution of calpain were added to 150 μL of a 10 μg/μL solution in digestion buffer in order to obtain a final concentration of 50 ng/mL of enzyme. Minimum quantities were added, between 5 and 20 μL of inhibitor solution in DMSO, previously diluted in order to achieve the desired final concentration of inhibitor, and digestion buffer was added until a volume of 190 μL was achieved. The test commenced by adding 10 μL of 0.05 M CaCl2 solution. For each inhibitor, separate measurements excluding inhibitor, calpain and calcium solution were taken as blanks. All measurements were made in triplicate.
The fluorescence measurements were made in a SPECTRAFLUOR TECAN Corp 93382 spectrum fluorimeter, exciting at 485 nm and taking the reading at 530 nm. The measurement was made over 20 cycles until the measurement of all wells was completed. Stirring was orbital type and took place each cycle.

A word on the IC50: it is the midpoint of a concentration-inhibition curve. Read a low IC50 as higher potency.

As for `COC(=O)[C@H](Cc1ccccc1)NC(=S)c1ccccc1-c1ccccc1C(=S)N[C@@H](Cc1ccccc1)C(=O)OC` [Compound 1, Methyl (S,S)-3-phenyl-2-{[2′-(2-phenyl-1-methoxycarbonyl-ethylthio-carbamoyl)-biphenyl-2-carbothiol]-amino}—propionate], the IC50 was determined as 94000 nM.

The compound `COC(=O)[C@H](Cc1c[nH]c2ccccc12)NC(=O)c1ccccc1-c1ccccc1C(=S)N[C@@H](Cc1c[nH]c2ccccc12)C(=O)OC` [Compound 4, Methyl (S,S)-3-(1H-Indol-3-yl)-2-{[2′-(2-(1H-Indol-3-yl)-1-methoxycarbonyl-ethylthiocarbamoyl)-biphenyl-2-carbonyl]-amino}-propionate] returned an IC50 of 69 nM.

Compound `COC(=O)[C@H](Cc1ccc(O)cc1)NC(=S)c1ccccc1-c1ccccc1C(=S)N[C@@H](Cc1ccc(O)cc1)C(=O)OC` [Compound 7] registered an IC50 of 796 nM.

`COC(=O)[C@@H](NC(=S)c1ccccc1-c1ccccc1C(=S)N[C@H](C(=O)OC)C(C)C)C(C)C` [Compound 5, Methyl (S,S)-2-{[2′-(1-methoxycarbonyl-2-methyl-propylthiocarbamoyl)-biphenyl-2-carbothioyl]-amino}-3-methyl-butyrate]: inhibition was half-maximal at 71 nM (IC50).

`COC(=O)[C@H](Cc1ccccc1)NC(=O)c1ccccc1-c1ccccc1C(=S)N[C@@H](Cc1ccccc1)C(=O)OC` [Compound 2, Methyl (S,S)-3-phenyl-2-{[2′-(2-phenyl-1-methoxycarbonyl-ethylthio-carbamoyl)-biphenyl-2-carbonyl]-amino}-propionate] displayed an IC50 of 63000 nM.

Consider `COC(=O)[C@@H](NC(=O)c1ccccc1-c1ccccc1C(=S)N[C@H](C(=O)OC)C(C)C)C(C)C` [Compound 6, Methyl (S,S)-2-{[2′-(1-methoxycarbonyl-2-methyl-propylthiocarbamoyl)-biphenyl-2-carbonyl]-amino}-3-methyl-butyrate], for which half-maximal inhibition (IC50) required 0.052 nM.

As to `COC(=O)[C@H](Cc1c[nH]c2ccccc12)NC(=S)c1ccccc1-c1ccccc1C(=S)N[C@@H](Cc1c[nH]c2ccccc12)C(=O)OC` [Compound 3, Methyl (S,S)-3-(1H-Indol-3-yl)-2-{[2′-(2-(1H-Indol-3-yl)-1-methoxycarbonyl-ethylthiocarbamoyl)-biphenyl-2-carbothioyl]-amino}-propionate], the IC50 is 0.038 nM.

Consider `COC(=O)[C@H](Cc1ccc(O)cc1)NC(=O)c1ccccc1-c1ccccc1C(=S)N[C@@H](Cc1ccc(O)cc1)C(=O)OC` [Compound 8], for which the IC50 was 12000 nM.
